Reference: patent US4617394A, “4-methyl-5-(unsubstituted and substituted phenoxy)-2,6-dimethoxy-8-(aminoalkylamino) quinolines” (priority 1985, dated 1986)
Where “and” joins values, the source holds several entries; their conditions need not be identical. Equal values may be shown once. Entries after “also recorded” stand apart in the source; their conditions may differ. Read-outs that look alike come from different tables or passages of the source.

Legend:
[1] = system: Plasmodium berghei KBG 173; test: animal or person; format: in vivo, young ICR/HA Swiss mice; conditions: for ΔMST: 5 mice; for Toxic death (T): number of 5 mice, 320 mg/kg
Excerpt: Blood Schizonticidal Test (Mouse), University of Miami, Rane (suppressive)
This system is based on comparisons of responses to test compounds by Plasmodium berghei KBG 173 malaria in mice as expressed in mean survival times and the mean survival times of untreated controls. Thus, compounds noted as active produce increases in the survival times of the treated animals that are significant when compared with the survival times of untreated controls. Since an established disease is less sensitive to treatment than a disease in the early stages of development, treatment is withheld until the parasitemia is relatively high in order to insure a more reliable assay of activity and the selection of appropriate compounds for intensive preclinical studies.
Utilizing young ICR/HA Swiss mice and a standard inoculum of Plasmodium berghei KBG 173, it is possible to produce a uniform disease fatal to 100% of untreated animals within 6 to 8 days with a mean survival time of 6.2 days. Test animals weigh from 18 to 22 grams but weight variations in any given experimental or control group are confined to 2 to 3 grams. All animals in any given test are approximately of the same age. Animals on test are housed in metal-topped plastic cages, given a standard laboratory diet and water ad libitum.
Test animals receive an intraperitoneal injection of 0.5 ml of 1:100 dilution of heparinized heart's blood with a minimum of 90% parasitized cells (4×10^7 cells), drawn from donor mice infected one week earlier with Plasmodium berghei. The donor strain is maintained by weekly passages in separate groups of mice inoculated with a 0.5 ml of 1:500 dilution of heparinized heart's blood.
Test compounds are administered after dissolution or suspension in peanut oil. A single dose is given subcutaneously 72 hours after the mice are infected with Plasmodium berghei. At this time a 10-15 percent parasitemia has developed; the disease is well established but has not produced sufficient debility to alter the response of the host to toxic effects of the drug on test. Since treatment is withheld for three days to permit the infection to become well established and death occurs in untreated controls within 6 to 8 days, it is believed that this system presents a candidate compound with the maximum challenge. In order to check factors such as changes in the infectivity of Plasmodium berghei or in the susceptibility of the host or to detect technical errors, a group of infected animals treated with pyrimethamine at dose levels producing definite increases in survival time is included as a positive control in every experiment.
In each experiment test compounds are administered in graded doses. […] However, if an active drug is toxic for the host, its toxicity may become a limiting factor; continued increases in dose levels also increase the toxic effects and may result in the diminution of survival times. Deaths prior to the sixth day, when untreated controls begin to die, are regarded as non-parasitic and become the basis for the interpretation that the drug is toxic. Treated animals are kept under observation for 60 days. Survivors at the end of this period of time are considered as cured.
An increase of 100% in mean survival time is considered the minimum effective response for a candidate compound. In calculating mean survival time, toxic deaths and 60 day survivors are not included.

[2] = system: Plasmodium cynomolgi (strain B); test: Radical Curative Test in Rhesus Monkeys, SEATO Medical Research Laboratory; format: in vivo, Indian rhesus monkeys; conditions: for Cures (C): Table 8, Seato; for Radical Curative Activity, Cures (C): Table 1, Seato Rhesus
Procedure: Radical Curative Test in Rhesus Monkeys, SEATO Medical Research Laboratory, Bangkok,
This test is designed to evaluate the tissue schizonticidal (radical curative) activity of test compounds. Well-conditioned Indian rhesus monkeys of either sex weighing 2-4 Kg are utilized. Plasmodium cynomolgi (strain B) sporozoites are prepared by grinding heavily infected Anopheles dirus salivary glands in 1:1 monkey serum-saline vehicle.
Monkeys are infected by I.V. injection of 10^6 freshly isolated P. cynomolgi sporozoites on day 0. A rapidly rising parasitemia develops after a 7 to 9 day prepatient period, and administration of the test drug is initiated when the rising parasite count exceeds 5000 per mm^3 (typically day 10-12). Test drugs are administered orally (by nasogastric intubation) once daily for 7 consecutive days in aqueous solution or, if insoluble, in suspension in 0.3% methylcellulose solution. Chloroquine diphosphate (3.1 mg of base/kg orally per day) is always administered concurrently with the test drug for 7 days to eliminate blood schizonts. Thus any tissue schizonticidal activity of the test drug will always be apparent even if it lacks blood schizonticidal activity.
A vehicle control monkey and a positive drug control (primaquine) monkey are included in each group of inoculated monkeys.
The effect of the test drug is determined by counting blood parasites. Parasite counts are made daily through day 20, and every two days thereafter. Initially a clearance of blood parasites is observed due to the blood schizonticidal action of chloroquine. […] If there is no relapse within 20 days of the initial clearance of parasitemia, the monkey is splenectomized and its parasitemia followed for an additional 30 days. If there is no relapse within this period, the experiment is terminated and the monkey is considered "cured". Alternately, in some experiments, negative parasitemia was followed for 100 days without prior splenectomy. It has been determined that the splenectomy and non-splenectomy methods yield virtually identical results.
Primaquine diphosphate cures over 90% of monkeys in this test system when administered at a dose of 1.3 mg/kg of salt per day for 7 days ([…]) in combination with chloroquine.

[3] = system: Chesson strain of P. vivax; test: Antimalarial activity against (trophozoite-induced) infections of the Chesson strain of P. vivax in the Aotus monkey; format: in vivo
[4] = system: P. berghei yoelli; test: Causal prophylactic activity against sporozoite induced P. berghei yoelli in the mouse; format: in vivo; conditions: for Cures: subcutaneous
[5] = system: methemoglobin; format: in vivo, Dog; conditions: for Peak % MHb / Slope of MHb Formation / Time of Peak MHb / MHb Disappearance Half-Time / MHb Production as AUC Corrected for Baseline: oral capsule, days 0-3, 3 mg/kg primaquine base per day or molar equivalent; for Peak % MHb / Slope of MHb Formation / Time of Peak MHb / MHb Production as AUC Corrected for Baseline: means differ significantly (p <.05); for MHb Disappearance Half-Time: no difference in the means; for MHb Production as AUC Corrected for Baseline: total methemoglobin production
Procedure: ^a Primaquine, Comparative Compound, or Compound X, were administered
orally by capsule for four days on days 0, 1, 2 and 3 at a dose of 3 mg/k
primaquine base per day or the molar equivalent.
^e Total methemoglobin production expressed as mg of MHb/ml of
blood/hr for a total of 2 days after administration of the first dose.
^f Area under the % methemoglobin versus time curve (AUC).

[6] = Acute toxicity in the rat by oral or intraperitoneal administration; conditions: for LD50 (95% Confidence Limit): Rat
[7] = system: methemoglobin; conditions: background; cited from earlier work
[8] = system: Plasmodium vivax and P. ovale malaria; conditions: background; cited from earlier work
[9] = system: Plasmodium berghei KBG 173; conditions: dose levels as low as; cited from earlier work
[10] = Table 2, P. cynomolgi, Rhesus, 0.10 mg/kg × 7 of salt
[11] = Table 2, P. cynomolgi, Rhesus, 0.316 mg/kg × 7 of salt
[12] = Table 2, P. cynomolgi, Rhesus, 1.0 mg/kg × 7 of salt

COc1cc(C)c2c(Oc3cccc(C(F)(F)F)c3)c(OC)cc(NC(C)CCCN)c2n1.O=C(O)CCC(=O)O (stereo not shown) [Compound X, 8-(4-Amino-1-methylbutylamino)-2,6-dimethoxy-4-methyl-5-(3-trifluoromethylphenoxy)quinoline Succinate]
blood schizonticidal activity in the mouse, in words ([1]; Table 4): blood schizonticidal activity in the mouse similar to the Comparative Compound | ΔMST ([1]; Table 4, 5 mg/kg): 4 days | ΔMST ([1]; Table 4, 10 mg/kg): 6 days | ΔMST ([1]; Table 4, 20 mg/kg): 9 days | Cures ([2]; Table 2, P. cynomolgi, Rhesus, 0.0316 mg/kg × 7 of salt): 0/2 | Cures [2, 10]: 2/4 | Cures [2, 11]: 4/4 | Cures [2, 12]: 2/2 | Molar Primaquine Index by Regression Analysis ([2]; Table 2, ratio of molar ED50, relative to primaquine): 12.8 | Cures (C) ([2]; P. cynomolgi, 0.0316 mg/kg (×7)): 0/2 | Cures (C) ([2]; P. cynomolgi, 0.1 mg/kg (×7)): 2/4 | Cures (C) ([2]; P. cynomolgi, 0.316 mg/kg (×7)): 4/4 | Cures (C) ([2]; P. cynomolgi, 1.0 mg/kg (×7)): 2/2 | potency relative to primaquine diphosphate, molar basis ([2]; calculated by regression analysis, P. cynomolgi, Rhesus): 12.8 times | potency relative to Comparative Compound ([2]; radical curative, P. cynomolgi, Rhesus): approximately two | Cures ([3]; 1 mg/kg × 3 of base): 2/2 | Cures ([3]; 4 mg/kg × 3 of base): 4/4 | Cures ([3]; 16 mg/kg × 3 of base): 3/3 | Cures ([3]; 32 mg/kg × 3 of base): 1/1 | blood schizonticidal activity in words ([3]; Table 3, Succinate): much greater blood schizonticidal activity than primaquine; also recorded: slightly better activity than the Comparative Compound | Cures ([4]; 2.5 mg/kg of salt): 0/5 | Cures ([4]; 10 mg/kg of salt): 4/10 | Cures ([4]; 40 mg/kg of salt): 9/10 | Cures ([4]; 160 mg/kg of salt): 5/5 | prophylactic activity in words ([4]; Table 5, Succinate): showed prophylactic activity; also recorded: slightly less than that observed with the Comparative Compound | total methemoglobin formation (area under the curve), less than Comparative Compound ([5]; Table 7, 46% less): 46% | methemoglobin-forming property in words ([5]; Table 7, Succinate): significantly less toxic in terms of methemoglobinemia | peak level of methemoglobin ([5]; Table 7, equimolar doses): 16% | methemoglobin-forming property in words ([5]; Table 7, listed as Compound X succinate, Succinate): much less potent methemoglobin-forming compound than the Comparative Compound | MHb Disappearance Half-Time, individual dogs ([5]; footnote h, data of single dogs of the group, Succinate): 5.08 days and 7.71 days and 23.30 days | Peak % MHb [5]: 16.0 ± 7.72% | Slope of MHb Formation [5]: 0.61 ± 0.10 | Time of Peak MHb [5]: 6.83 ± 0.72 days | MHb Disappearance Half-Time [5]: 12.03 ± 9.85 days | MHb Production as AUC Corrected for Baseline [5]: 7,887 ± 3,609 mg of MHb/ml of blood/hr | LD50 (95% Confidence Limit) ([6]; female, I.P.): 71 (14-114) mg/kg (Salt) | LD50 (95% Confidence Limit) ([6]; female, oral): 416 (376-449) mg/kg (Salt) | LD50 (95% Confidence Limit) ([6]; male, I.P.): 102 (25-164) mg/kg (Salt) | LD50 (95% Confidence Limit) ([6]; male, oral): 429 (320-515) mg/kg (Salt) | acute toxicity in words ([6]; Table 6, orally or intraperitoneally): less toxic than primaquine or the Comparative Compound

COc1cc(NC(C)CCCN)c2ncccc2c1 (stereo not shown) [Primaquine diphosphate, 8-(4-amino-1-methylbutylamino)-6-methoxyquinoline]
minimal effective dose ([1]; Plasmodium berghei, in Mus musculus, Table 4, read-out: active dose (active only at)): 160 mg/kg | suppressive activity in words ([1]; Rane mouse test): very weak activity at non-toxic dose levels | ΔMST ([1]; Table 1, P. berghei, Rane Mouse Test, 160 mg/kg): 9 days | Toxic death (T) ([1]; Table 1): 2/5 | ΔMST ([1]; Table 4, 160 mg/kg): 9 days | curative activity in words ([1]; Table 4, highest dose of 640 mg/kg): not curative even at the highest dose of 640 mg/kg | Toxic death (T) ([1]; Table 4): 2/5 | radical curative activity in words ([2]; 0.316 mg/kg): inactive | Cures ([2]; 1.0 mg/kg): 50% | Cures ([2]; 1.3 mg/kg): 100% | monkeys cured ([2]; 1.3 mg/kg of salt per day for 7 days (1.0 mg/kg free base), in combination with chloroquine): over 90% | Radical Curative Activity, Cures (C) ([2]; P. cynomolgi, 0.316 mg/kg (× 7)): 0/2 | Radical Curative Activity, Cures (C) ([2]; P. cynomolgi, 1.0 mg/kg (× 7)): 1/2 | Radical Curative Activity, Cures (C) ([2]; P. cynomolgi, 1.3 mg/kg (× 7)): 6/6 | Cures [2, 10]: 0/2 | Cures [2, 11]: 0/2 | Cures [2, 12]: 1/2 | Cures ([2]; Table 2, P. cynomolgi, Rhesus, 1.3 mg/kg × 7 of salt): 6/6 | Cures ([3]; 3.3 mg/kg × 3 of base): 0/10 | Cures ([3]; 13.3 mg/kg × 3 of base): 3/8 | Cures ([3]; 26 mg/kg × 3 of base): 5/6 | Peak % MHb [5]: 6.27 ± 3.86% | Slope of MHb Formation [5]: 0.93 ± 0.61 | Time of Peak MHb [5]: 3.92 ± 0.34 days | MHb Disappearance Half-Time [5]: 7.89 ± 3.30 days | MHb Production as AUC Corrected for Baseline [5]: 2,138 ± 1,484 mg of MHb/ml of blood/hr | methemoglobin formation in words [7]: cause methemoglobinemia; also recorded: Methemoglobin formation is induced | toxicity in man, in words [8]: the toxicity of primaquine precludes administration of a single curative dose | LD50 (95% Confidence Limit) ([6]; female, oral): 244 (193-260) mg/kg (Salt)

OC(c1cc(C(F)(F)F)nc2c(C(F)(F)F)cccc12)C1CCCCN1 (stereo not shown) [mefloquine]
curative dose, Rane Mouse Test [9]: 20 mg/kg
